{"source": "ChEMBL document CHEMBL5360646", "about": "“Optimization of M3 Antagonist-PDE4 Inhibitor (MAPI) Dual Pharmacology Molecules for the Treatment of COPD” (J Med Chem, 2023)", "key": {"[1]": {"molecular_target": "3',5'-cyclic-AMP phosphodiesterase 4B (Homo sapiens, UniProt Q07343)", "sequence (Q07343 whole entry)": "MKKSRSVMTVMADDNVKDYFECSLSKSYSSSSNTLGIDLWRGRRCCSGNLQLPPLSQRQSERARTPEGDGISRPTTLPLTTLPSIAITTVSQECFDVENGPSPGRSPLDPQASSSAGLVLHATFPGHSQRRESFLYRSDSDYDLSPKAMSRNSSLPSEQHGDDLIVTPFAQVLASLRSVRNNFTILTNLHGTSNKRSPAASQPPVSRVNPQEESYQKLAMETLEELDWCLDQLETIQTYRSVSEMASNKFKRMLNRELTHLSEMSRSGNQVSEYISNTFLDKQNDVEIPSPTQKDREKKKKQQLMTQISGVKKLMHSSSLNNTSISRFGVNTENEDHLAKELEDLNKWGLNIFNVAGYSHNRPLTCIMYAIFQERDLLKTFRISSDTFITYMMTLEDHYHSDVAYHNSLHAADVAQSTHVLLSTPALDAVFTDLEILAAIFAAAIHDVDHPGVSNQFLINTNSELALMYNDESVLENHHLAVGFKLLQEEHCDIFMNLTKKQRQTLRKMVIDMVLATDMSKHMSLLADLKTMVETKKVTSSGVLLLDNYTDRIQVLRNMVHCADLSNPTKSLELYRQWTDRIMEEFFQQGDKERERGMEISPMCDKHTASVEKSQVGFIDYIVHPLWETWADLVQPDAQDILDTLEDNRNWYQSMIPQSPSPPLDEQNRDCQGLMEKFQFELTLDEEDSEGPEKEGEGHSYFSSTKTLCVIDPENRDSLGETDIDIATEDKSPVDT", "experiment": "Inhibition of human recombinant PDE4B2 expressed in baculovirus expression system using cAMP as substrate incubated for 2 hrs by HTRF assay"}, "Rattus norvegicus [2]": {"test_system": "Rattus norvegicus", "experiment": "Anti-bronchospastic activity in carbachol-induced bronchospasm Sprague-Dawley rat model assessed as inhibition of carbachol-induced bronchoconstriction administered IT(Intratracheal) for 1 hr prior to carbachol challenge", "format": "functional", "conditions": "Rattus norvegicus, Sprague-Dawley, read-out: ED50"}, "[3]": {"experiment": "Metabolic stability in rat lung S9 fraction assessed as half life at 1 uM and measured upto 60 mins in presence of NADPH by LC-MS/MS analysis", "format": "ADME, subcellular", "conditions": "lung S9 fraction"}, "[4]": {"experiment": "Metabolic stability in human liver microsomes assessed as intrinsic clerance at 1 uM and measured upto 60 mins by HPLC-MS/MS analysis", "format": "ADME, Microsome", "conditions": "liver microsomes, read-out: CLH"}, "Rattus norvegicus [5]": {"test_system": "Rattus norvegicus", "experiment": "Anti-bronchospastic activity in carbachol-induced bronchospasm Sprague-Dawley rat model assessed as inhibition of carbachol-induced bronchoconstriction at 3 nmol/kg, IT(Intratracheal) administered 16 hr prior to carbachol challenge", "format": "functional", "design": "scale not given: the % may be the effect or the level left"}, "[6]": {"experiment": "Metabolic stability in human lung S9 fraction assessed as half life at 1 uM and measured upto 60 mins in presence of NADPH by LC-MS/MS analysis", "format": "ADME, subcellular", "conditions": "lung S9 fraction"}, "[7]": {"experiment": "Metabolic stability in rat plasma assessed as half life at 5 uM and measured upto 180 mins by HPLC-MS/MS analysis", "format": "ADME, cell-free"}, "[8]": {"experiment": "Metabolic stability in human plasma assessed as half life at 5 uM and measured upto 180 mins by HPLC-MS/MS analysis", "format": "ADME, cell-free"}, "[9]": {"experiment": "Ratio of ED50 for Anti-inflammatory activity against OVA-sensitized Brown-Norway rat airway inflammation model to ED50 for Anti-bronchospastic activity in carbachol-induced bronchospasm Sprague-Dawley rat model", "format": "functional"}, "Rattus norvegicus [10]": {"test_system": "Rattus norvegicus", "experiment": "Anti-inflammatory activity against OVA-sensitized Brown-Norway rat airway inflammation model assessed as inhibition of OVA-induced eosinophil influx administered IT(Intratracheal) 2 hrs prior to OVA challenge", "format": "functional"}, "[11]": {"experiment": "Metabolic stability in rat liver microsomes assessed as intrinsic clerance at 1 uM and measured upto 60 mins by HPLC-MS/MS analysis", "format": "ADME, Microsome", "conditions": "liver microsomes, read-out: CLH"}, "[12]": {"experiment": "Antiinflammatory activity against LPS-stimulated human PBMC cells assessed reduction in TNFalpha level incubated for 18 hrs by ELISA analysis", "format": "functional, cell-based", "conditions": "Homo sapiens, PBMC, 18 h"}, "Rattus norvegicus [13]": {"test_system": "Rattus norvegicus", "experiment": "Anti-bronchospastic activity in carbachol-induced bronchospasm Sprague-Dawley rat model assessed as inhibition of carbachol-induced bronchoconstriction at 3 nmol/kg, IT(Intratracheal) administered 1 hr prior to carbachol challenge", "format": "functional", "design": "scale not given: the % may be the effect or the level left"}, "[14]": {"experiment": "Antiinflammatory activity against LPS-stimulated rat PBMC cells assessed reduction in TNFalpha level incubated for 18 hrs by ELISA analysis", "format": "functional, cell-based"}, "[15]": {"molecular_target": "Muscarinic acetylcholine receptor M3 (Homo sapiens, UniProt P20309)", "sequence (P20309 whole entry)": "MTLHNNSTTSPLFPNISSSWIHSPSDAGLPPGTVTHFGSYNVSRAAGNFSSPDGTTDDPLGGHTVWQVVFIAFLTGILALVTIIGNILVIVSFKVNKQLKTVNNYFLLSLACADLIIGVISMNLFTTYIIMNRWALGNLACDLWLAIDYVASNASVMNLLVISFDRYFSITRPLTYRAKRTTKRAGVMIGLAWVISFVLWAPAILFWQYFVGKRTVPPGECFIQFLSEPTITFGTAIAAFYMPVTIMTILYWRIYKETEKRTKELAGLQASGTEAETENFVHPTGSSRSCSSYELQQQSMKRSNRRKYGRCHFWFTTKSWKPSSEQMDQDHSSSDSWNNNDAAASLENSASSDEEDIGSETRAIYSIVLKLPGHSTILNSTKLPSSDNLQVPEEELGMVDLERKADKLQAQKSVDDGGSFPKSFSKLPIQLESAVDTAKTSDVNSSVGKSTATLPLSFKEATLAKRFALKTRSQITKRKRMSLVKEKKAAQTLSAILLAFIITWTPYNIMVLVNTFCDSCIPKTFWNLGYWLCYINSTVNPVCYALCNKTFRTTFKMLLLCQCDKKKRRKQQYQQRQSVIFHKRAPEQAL", "experiment": "Displacement of [3H]N-methylscopolamine chloride from human muscarinic M3 receptor incubated for 2 hrs by radioligand binding assay"}, "Trachea": {"test_system": "Trachea", "experiment": "Bronchoconstriction activity in Sprague-Dawley rat trachea assessed as inhibition of carbachol-induced tracheal contraction", "format": "functional, tissue-based", "conditions": "Rattus norvegicus, Sprague-Dawley, Trachea"}}, "data": [{"molecule": "COc1ccc([C@H](Cc2c(Cl)c[n+]([O-])cc2Cl)OC(=O)c2ccc(CN[C@@H](C(=O)O[C@H]3CN4CCC3CC4)c3ccccc3)s2)cc1OC", "values": [{"measurement": "IC50", "setting": "[1]", "result": 1.58, "unit": "nM"}, {"measurement": "ED50", "setting": "Rattus norvegicus [2]", "result": 0.0007, "unit": "µmol/kg"}, {"measurement": "half-life at 1 µM", "setting": "[3]", "result": 15, "unit": "min"}, {"measurement": "microsomal CLint at 1 µM", "setting": "[4]", "result": 213, "unit": "µL/min/mg"}, {"measurement": "Activity", "setting": "Rattus norvegicus [5]", "result": 67, "unit": "%"}, {"measurement": "half-life at 1 µM", "setting": "[6]", "result": 69, "unit": "min"}, {"measurement": "half-life at 5 µM", "setting": "[7]", "result": 9, "unit": "min"}, {"measurement": "half-life at 5 µM", "setting": "[8]", "result": 11, "unit": "min"}, {"measurement": "Ratio ED50", "setting": "[9]", "result": 42}, {"measurement": "ED50", "setting": "Rattus norvegicus [10]", "result": 0.03, "unit": "µmol/kg"}, {"measurement": "microsomal CLint at 1 µM", "setting": "[11]", "result": 126, "unit": "µL/min/mg"}, {"measurement": "IC50", "setting": "[12]", "result": 1.58, "unit": "nM"}, {"measurement": "Activity", "setting": "Rattus norvegicus [13]", "result": 74, "unit": "%"}, {"measurement": "IC50", "setting": "[14]", "result": 2, "unit": "nM"}, {"measurement": "Ki", "setting": "[15]", "result": 0.0631, "unit": "nM"}, {"measurement": "IC50", "setting": "Trachea", "result": 1, "unit": "nM"}]}]}
